Test results taken from patent US5686428A, “Pharmaceutical composition” (priority 1994, dated 1997).
“Also recorded” adds a separate entry of the source. Read-outs that look alike come from different tables or passages of the source.

How the values were obtained:
HIV-1 (strain LAV-1) = test: HIV-1 replication in infected human PBM cells (RT activity of disrupted virions); format: cell-based; conditions: for EC50: read-out: EC50 (median effective concentration)
Description: Cells, virus strains, and cell culture assays. PBM cells from healthy HIV-1 and hepatitis B virus seronegative donors were isolated and propagated as described previously (35). HIV-1 (strain LAV-1) was obtained from the Centers for Disease Control, Atlanta, and propagated in PHA-stimulated human PBM cells as described previously (35). The details of the methods used for infection and assaying the anti-HIV-1 effect in infected human PBM cells have been reported (35).
RT activity assay with disrupted virions. Six ml supernatant from each culture was clarified from cells at 300× g for 10 minutes. Virus particles were then pelleted from 5 ml samples at 40,000 rpm for 30 minutes using a Beckman 70.1 Ti rotor and suspended in 200 μl of virus disrupting buffer [50 mM Tris-HCl pH 7.8, 800 mM NaCl, 20% glycerol, 0.5 mM phenylmethyl sulfonyl fluoride (PMSF), and 0.5% Triton X-100].
The RT assays were performed at 37° C. in 96-well microtiter plates using methods described previously (35, 38). The results were expressed as dpm/ml of the originally clarified supernatant.
(§1) Calculation of synergy. […] Briefly, the method involves plotting of dose-effect curves for each compound alone and in combinations. It is essential to use a fixed ratio of the agents in multiply diluted combinations in order to use the median-effect equation: fa /fu =(C/Cm)^m. In this equation, C is the concentration, fa and fu are the fractions of the system which are affected and unaffected, respectively, by concentration C. Cm is the concentration required for a 50% effect (analogous to IC50 to EC50 values), and m is a Hill-type coefficient signifying the sigmoidicity of the dose-effect curve. The slopes (m) of the dose-effect plots, obtained for the studied compounds, provided information as to whether the compounds are mutually exclusive (i.e. similar modes of action) or mutually non-exclusive (i.e. different modes of action). When the plots of both compounds and their combination were all parallel, the effects of the two compounds were mutually exclusive. The interaction between two compounds was determined by calculating the combination index (C.I.) with assumptions, where appropriate, of either mutually exclusive or non-exclusive interactions. When uncertainty existed as to whether the drugs acted in similar or independent manners, the determination of C.I.-values were calculated under each assumption and compared. Values of C.I.<1 indicated synergy, C.I.=1 indicated additive effects, and C.I.>1 indicated antagonism. A computer program obtained from Elsevier-Biosoft, Cambridge, U.K. was used for automatic analysis of all dose-effect data. Additional details on using this method have been reported previously (33).

[1] = molecular target: T1, HIV-1 reverse transcriptase (Human immunodeficiency virus type 1 group M subtype B, UniProt P04585); test: RT activity assay with partially purified enzyme; format: biochemical
T1 construct: HIV-1 reverse transcriptase was isolated from detergent disrupted virions; endogenous in cells; host or cells: virions from cell-free supernatant of HIV-1 infected PHA-stimulated human PBM cells, ion-exchange chromatography
Experimental: RT activity assay with partially purified enzyme. HIV-1 reverse transcriptase was isolated from detergent disrupted virions obtained from the cell-free supernantant of infected PHA-stimulated PBM cells. The enzyme was purified by passing the extract through ion-exchange chromatography columns as described previously (12). The enzyme was characterized as HIV-1 RT based on its specific requirements according to previous description (1, 18). The standard reaction mixture (100 μl) contained 100 mM Tris-HCl (pH 8.0), 50 mM KCl, 2 mM MgCl2. 5 mM dithiothreitol 400 μg/ml bovine serum albumin, 0.05 U/ml (3.1 μg/ml) of (rA)n (dT)12-18, 1 μM [^3 H] dTTP (spec. act. 18,000 cpm/pmol) and 10 μl of HIV-1 Rt. The reactions were incubated and processed as previously described (7).
as §1

HCMV DNA polymerase = molecular target: T2, HCMV DNA polymerase (Human cytomegalovirus, UniProt P08546); test: CMV DNA polymerase assay; format: biochemical
T2 construct: gift from Dr. B. Wahren, National Bacteriological Laboratory, Stockholm
T2 sequence (P08546 whole entry): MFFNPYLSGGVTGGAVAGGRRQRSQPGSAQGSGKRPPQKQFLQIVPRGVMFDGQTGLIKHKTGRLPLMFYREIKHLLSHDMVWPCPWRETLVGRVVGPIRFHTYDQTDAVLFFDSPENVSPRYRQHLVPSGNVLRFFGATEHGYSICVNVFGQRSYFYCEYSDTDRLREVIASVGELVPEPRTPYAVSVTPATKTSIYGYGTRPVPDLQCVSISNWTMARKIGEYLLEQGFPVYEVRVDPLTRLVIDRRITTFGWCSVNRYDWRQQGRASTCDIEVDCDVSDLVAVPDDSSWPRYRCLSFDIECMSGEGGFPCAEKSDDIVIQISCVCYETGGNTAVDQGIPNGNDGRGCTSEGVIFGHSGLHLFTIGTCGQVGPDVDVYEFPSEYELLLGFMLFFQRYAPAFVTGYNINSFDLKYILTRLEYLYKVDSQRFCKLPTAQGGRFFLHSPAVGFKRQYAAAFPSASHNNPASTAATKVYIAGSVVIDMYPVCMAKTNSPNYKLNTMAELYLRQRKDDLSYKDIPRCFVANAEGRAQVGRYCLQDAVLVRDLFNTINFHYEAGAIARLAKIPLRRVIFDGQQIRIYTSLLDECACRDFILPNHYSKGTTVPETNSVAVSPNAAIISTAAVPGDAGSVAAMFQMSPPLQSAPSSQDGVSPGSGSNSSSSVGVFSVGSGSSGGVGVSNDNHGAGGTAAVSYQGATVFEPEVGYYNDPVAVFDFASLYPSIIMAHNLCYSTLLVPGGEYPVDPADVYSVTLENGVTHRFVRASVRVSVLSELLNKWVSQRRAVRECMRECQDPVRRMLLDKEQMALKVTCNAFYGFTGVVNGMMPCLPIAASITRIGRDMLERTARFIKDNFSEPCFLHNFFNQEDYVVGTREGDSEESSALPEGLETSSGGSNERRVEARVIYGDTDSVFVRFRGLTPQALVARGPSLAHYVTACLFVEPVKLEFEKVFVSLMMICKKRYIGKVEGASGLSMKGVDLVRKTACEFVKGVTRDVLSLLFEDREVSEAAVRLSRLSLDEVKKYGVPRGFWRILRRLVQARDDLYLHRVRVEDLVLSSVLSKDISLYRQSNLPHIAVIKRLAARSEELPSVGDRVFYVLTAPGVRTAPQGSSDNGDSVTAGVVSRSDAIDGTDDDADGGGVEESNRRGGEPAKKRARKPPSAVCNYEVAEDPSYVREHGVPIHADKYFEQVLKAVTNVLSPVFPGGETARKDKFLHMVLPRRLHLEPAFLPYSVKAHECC
Description: CMV DNA Polymerase Assay. The partially purified HCMV-specific DNA polymerase was a generous gift from Dr. B. Wahren, National Bacteriological Laboratory, Stockholm. The procedure for the purification of HCMV DNA polymerase by sequential chromatographic steps on DEAE-cellulose (Whatman DE-52) and phosphocellulose (Whatman P-11) and the measurement of enzyme activity have been described previously (5).
as §1

HCMV strain Ad169 = test: HCMV plaque reduction assay in HEL cells; format: cell-based, human cytomegalovirus; conditions: for EC50: Human betaherpesvirus 5, AD169, HEL, CMV infected cells
Experimental: HCMV strain Ad169 was a gift from Dr. Fred Rapp, Hersey, Pa. Human embryonic lung (HEL) cells, obtained from the American Type Culture Collection, Rockville, Md., were cultured in Dulbecco modified Eagle medium as decribed previously (39). Viable cells were conducted microscopically using a hemacytometer and the trypan blue exclusion method. Plaque reduction assays were performed in confluent monolayers of HEL cells in 6-well plates (Costar, Cambridge, Mass.) with 100 to 200 pfu of HCMV Ad169. After an adsorption period of 1 hour, unadsorbed virus was removed and the monolayers were overlaid with Dulbecco modified Eagle medium containing 0.75% SeaPlaque agarose (FMC BioProducts, Rockland, Me.), 2% heat inactivated fetal calf serum, and the appropriate concentration of drug. The plates were incubated at 37° C. in a humidified atmosphere containing 5% CO2 for 10 to 12 days. The monolayers were then fixed with 10% buffered Formalin (Fisher Scientific Co, Fair Lawn, N.J.), stained with crystal violet, and the number of plaques were counted.
as §1

[2] = test system: uninfected PHA-stimulated human PBM cells; test: Cell proliferation / toxicity in uninfected PBM cells (trypan blue exclusion); format: cell-based
Experimental: Cell proliferation. The drugs alone and in combination were evaluated for their potential toxic effects on uninfected PHA-stimulated human PBM cells. Flasks were seeded so that the final cell concentration was 3×10^5 cells ml. The cells were cultured with and without drug for 6 days at which time aliquots were counted for cell viability by using the trypan blue exclusion method.

HIV-1 = conditions: patients, after a 14-day treatment; cited from earlier work
[3] = Human immunodeficiency virus 1, PBMC

Work on O=C(O)P(=O)(O)O [PFA, phosphonoformic acid] yielded an inhibition at 8 µM (HIV-1 (strain LAV-1); [3]) of 9.1%, an inhibition at 16 µM (HIV-1 (strain LAV-1); [3]) of 41.1% and an inhibition at 32 µM (HIV-1 (strain LAV-1); [3]) of 75.5%. It also gave an inhibition at 64 µM (HIV-1 (strain LAV-1); [3]) of 88.1%, an inhibition at 128 µM (HIV-1 (strain LAV-1); [3]) of 95.5% and an EC50 (HIV-1 (strain LAV-1); [3]) of 22 µM. The RT activity (HIV-1 (strain LAV-1); PFA 8 μM) was 703 kdpm/ml, the RT activity (HIV-1 (strain LAV-1); PFA 16 μM) was 455 kdpm/ml and the RT activity (HIV-1 (strain LAV-1); PFA 32 μM) was 190 kdpm/ml. It also gave an RT activity (HIV-1 (strain LAV-1); PFA 64 μM) of 93.1 kdpm/ml, an RT activity (HIV-1 (strain LAV-1); PFA 128 μM) of 35.9 kdpm/ml and an EC50 [1] of 0.14 µM. The “m ± SE (slope of median effect plot)” value ([1]; HIV-1 reverse transcriptase) was 0.91±0.03, the “EC50 times lower than that of AZT-TP” value (HCMV DNA polymerase) was “more than 30 times” and the “m ± SE (slope of median effect plot)” value (HCMV DNA polymerase; CMV DNA polymerase) was 0.79 ± 0.02. The EC50 (HCMV DNA polymerase; CMV DNA polymerase, read-out: EC50 (median effective concentration)) was 0.78 µM, the EC50 (HCMV strain Ad169; plaque formation, read-out: EC50 (median effective concentration)) was 34 µM and the “toxicity to PBM cells” value [2] was “not toxic”. The “HIV-1 p24 antigen concentrations” value (HIV-1) was “significant reduction”.
Cc1cn([C@H]2C[C@H](N=[N+]=[N-])[C@@H](CO)O2)c(=O)[nH]c1=O [AZT, 3'-azido-3'-deoxythymidine] showed an RT activity (HIV-1 (strain LAV-1); AZT 0.002 μM) of 750 kdpm/ml, an RT activity (HIV-1 (strain LAV-1); AZT 0.004 μM) of 584 kdpm/ml and an RT activity (HIV-1 (strain LAV-1); AZT 0.008 μM) of 343 kdpm/ml. It also gave an RT activity (HIV-1 (strain LAV-1); AZT 0.016 μM) of 35.9 kdpm/ml, an inhibition at 0.002 µM (HIV-1 (strain LAV-1); [3]) of 3% and an inhibition at 0.004 µM (HIV-1 (strain LAV-1); [3]) of 24.5%. For the same molecule, the inhibition at 0.008 µM (HIV-1 (strain LAV-1); [3]) was 55.7%, the inhibition at 0.016 µM (HIV-1 (strain LAV-1); [3]) was 95.5% and the EC50 (HIV-1 (strain LAV-1); [3]) was 0.006 µM. For the same molecule, the EC50 (HCMV strain Ad169; extrapolated in order to calculate C.I.-values, read-out: EC50 (extrapolated)) was 383 µM, the “inhibitory effect on multiplication of HCMV Ad169 in HEL fibroblasts” value (HCMV strain Ad169; concentrations up to 200 μM) was “virtually without inhibitory effect” and the “effect against HCMV replication in cell culture” value (HCMV strain Ad169; human embryonic lung fibroblasts) was “no inhibitory effect; also recorded: neither inhibited the replication”.
For Cc1cn([C@H]2C[C@H](N=[N+]=[N-])[C@@H](COP(=O)(O)OP(=O)(O)OP(=O)(O)O)O2)c(=O)[nH]c1=O [AZT-TP, 3'-azido-3'-deoxythymidine-5'-triphosphate], the “m ± SE (slope of median effect plot)” value ([1]; HIV-1 reverse transcriptase) was 0.87±0.03, the EC50 ([1]; HIV-1 reverse transcriptase, read-out: EC50 (median effective concentration)) was 0.003 µM and the “m ± SE (slope of median effect plot)” value (HCMV DNA polymerase; CMV DNA polymerase) was 0.88 ± 0.09.
